27 compounds from patent publication US6784184B2, “5-(arylsulfonyl)-,5-(arylsulfinyl), and 5-(arylsulfanyl)-thiazolidine-2,4-diones useful for inhibition of farnesyl-protein transferase” (Wyeth Holdings Corporation, priority 2001, dated 2004) can be followed below.

Some results are limits rather than exact numbers.

The target of one assay is FPTase (H-Ras substrate) (UniProt P29702+P49355). In words: in vitro FTase Inhibition Assay, H-Ras as substrate for farnesylation. In kind it is biochemical. The note with it: H-Ras used as substrate for farnesylation. The method, then: (§1) The ability of the compounds of this invention to inhibit FPTase was evaluated in the standard pharmacological in vitro test procedures described below.
(§2) Methods—1. […] 2. Solution #1 is added to FPTase reaction in a volume of […]. 3. Standard reaction mix, […], contains 50 mM Tris (7.5), […], 3 mM MgCl2, 20 mM KCl, 5 mM DTT, 0.2% octyl-B-glucoside, 1% DMSO, […], 10 ng FPTase, and various concentrations of FPTase inhibitors. 4. Incubate for 30-90 min at […] 5. Stop reactions with TCA/SDS (6%/2%), hold at 4° C. for 45-60 min. 6. Filter by manifold or 96 well plate, wash filter 3-5× with TCA (6%). 7. Add scintillant to filters, measure ^3H-FPP incorporation into Ras protein.
(§3) (cpm from precipitated Ras with test compounds)−(background cpm)×100=% inhibition.
(§4) (cpm from precipitated Ras without test compounds)−(background cpm)

The target in another assay is FPTase (K-Ras substrate) (UniProt P29702+P49355). The assay is described as follows: in vitro FTase Inhibition Assay, K-Ras as substrate for farnesylation. Type of assay: biochemical. The note with it: K-Ras used as substrate for farnesylation. The method, then:
as §1, §2, §3, §4

In the case of `O=C1NC(=O)C(CCCC#Cc2ccc([N+](=O)[O-])cc2)(S(=O)(=O)c2ccc(I)cc2)S1` (stereo not drawn) [Example 120, 5-(4-Iodobenzenesulfonyl)-5-[5-(4-nitrophenyl)pent-4-ynyl]-thiazolidine-2,4-dione], the 50% inhibitory concentration (IC50) against FPTase (H-Ras substrate) fell in the range of 18 to 32 nM; on FPTase (K-Ras substrate) it was 530 to 1000 nM.

With `COc1ccc(S(=O)(=O)C2(CCCC#Cc3cc([N+](=O)[O-])ccc3C)SC(=O)NC2=O)cc1` (stereo not drawn) [Example 122, 5-(4-Methoxybenzenesulfonyl)-5-[5-(2-methyl-5-nitrophenyl)pent-4-ynyl]-thiazolidine-2,4-dione], the IC50 against FPTase (H-Ras substrate) is 30 to 50 nM; against FPTase (K-Ras substrate), 230 to 1000 nM.

As to `COc1ccc(S(=O)(=O)C2(CCCC#Cc3cc(C(=O)NC(C)(C)C)ccc3C)SC(=O)NC2=O)cc1` (stereo not drawn) [Example 152, N-tert-Butyl-3-{5-[5-(4-methoxy-benzenesulfonyl)-2,4-dioxothiazol-idin-5-yl]pent-1-ynyl}-4-methyl-benzamide], the 50% inhibitory concentration (IC50) fell in the range of 11 to 16 nM at FPTase (H-Ras substrate) and 100 to 230 nM on FPTase (K-Ras substrate).

As to `COc1ccc(S(=O)(=O)C2(CCCC#Cc3cc(NC(=O)OCC(C)C)ccc3C)SC(=O)NC2=O)cc1` (stereo not drawn) [Example 182, (3-{5-[5-(4-Methoxybenzenesulfonyl)-2,4-dioxothiazolidin-5-yl]pent-1-ynyl}-4-methylphenyl)carbamic Acid Isobutyl], the half-maximal inhibitory concentration (IC50) against FPTase (H-Ras substrate) fell in the range of 5 to 10 nM; on FPTase (K-Ras substrate) it was 32 to 56 nM.

Take `COc1ccc(S(=O)(=O)C2(CCCC#Cc3cc(NC(=O)OC(C)(C)C)ccc3C)SC(=O)NC2=O)cc1` (single isomer, unassigned; more polar) [Example 223, Enantiomer of(3-{5-[5-(4-Methoxybenzenesulfonyl)-2,4-dioxothiazolidin-5-yl]pent-1-ynyl}-4-methylphenyl)carbamic Acid tert-Butyl Ester (more polar)]: the figures for the IC50 against FPTase (H-Ras substrate) and on FPTase (K-Ras substrate) were 63 nM and greater than 1000 nM, respectively.

In the case of `Cc1ccc(C#CCCCC2(S(=O)(=O)c3ccc(I)cc3)SC(=O)NC2=O)c(C)c1` (stereo not drawn) [Example 137, 5-[5-(2,4-Dimethylphenyl)pent-4-ynyl]-5-(4-iodobenzenesulfonyl)-thiazolidine-2,4-dione], the IC50 against FPTase (H-Ras substrate) was 21 to 400 nM; against FPTase (K-Ras substrate) it was 37 to 800 nM.

`Cc1cc(Br)ccc1C#CCCCC1(S(=O)(=O)c2ccc(I)cc2)SC(=O)NC1=O` (stereo not drawn) [Example 144, 5-[5-(4-Bromo-2-methylphenyl)pent-4-ynyl]-5-(4-iodobenzenesulfonyl)-thiazolidine-2,4-dione]: the IC50 was 40 to 41 nM against FPTase (H-Ras substrate) and 320 to 550 nM against FPTase (K-Ras substrate).

For the compound `Cc1ccc(S(=O)(=O)C2(CCC/C=C\c3ccc(Cl)cc3)SC(=O)NC2=O)cc1` (stereo not drawn) [Example 217, 5-[(4Z)-5-(4-Chloro-phenyl)pent-4-enyl]-5-(toluene-4-sulfonyl)-thiazolidine-2,4-dione], the IC50 at FPTase (H-Ras substrate) turned out to be 100 nM; on FPTase (K-Ras substrate), 8500 nM.

With `O=C1NC(=O)C(CCCC#Cc2ccc(Cl)cc2)(S(=O)(=O)c2ccc(OCc3ccccc3)cc2)S1` (stereo not drawn) [Example 111, 5-(4-Benzyloxybenzenesulfonyl)-5-[5-(4-chlorophenyl)pent-4-ynyl]-thiazolidine-2,4-dione], the figures for the half-maximal inhibitory concentration (IC50) against FPTase (H-Ras substrate) and on FPTase (K-Ras substrate) were 110 to 150 nM and 300 to 550 nM, respectively.

Turning to `COC(=O)Nc1ccc(C)c(C#CCCCC2(S(=O)(=O)c3ccc(OC)cc3)SC(=O)NC2=O)c1` (stereo not drawn) [Example 178, (3-{5-[5-(4-Methoxybenzenesulfonyl)-2,4-dioxothiazolidin-5-yl]pent-1-ynyl}-4-methylphenyl)carbamic Acid Methyl Ester], the half-maximal inhibitory concentration (IC50) at FPTase (H-Ras substrate) is 17 to 32 nM; against FPTase (K-Ras substrate), 10 nM.

“5-[5-(4-Chloro-2-methylphenyl)-pent-4-ynyl]-5-(4-iodobenzene-sulfonyl)-thiazolidine-2,4-dione [Example 141]”: the half-inhibitory concentration (IC50) fell in the range of 21 to 32 nM against FPTase (H-Ras substrate) and 300 to 340 nM against FPTase (K-Ras substrate).

`COc1ccc(S(=O)(=O)C2(CCCC#Cc3cc(NC(=O)OCc4ccc([N+](=O)[O-])cc4)ccc3C)SC(=O)NC2=O)cc1` (stereo not drawn) [Example 176, (3-{5-[5-(4-Methoxybenzenesulfonyl)-2,4-dioxothiazolidin-5-yl]pent-1-ynyl}-4-methylphenyl)carbamic Acid 4-Nitro-Benzyl Ester]: the IC50 fell in the range of 3.2 to 32 nM on FPTase (H-Ras substrate) and 30 to 320 nM at FPTase (K-Ras substrate).

As for `O=C1NC(=O)C(CCCC#Cc2cc(Cl)ccc2Cl)(S(=O)(=O)c2ccc(I)cc2)S1` (stereo not drawn) [Example 115, 5-[5-(2,5-Dichloro-phenyl)pent-4-ynyl]-5-(4-iodobenzenesulfonyl)-thiazolidine-2,4-dione], the concentration for half-maximal inhibition (IC50) on FPTase (H-Ras substrate) lay in the range of 12 to 320 nM; at FPTase (K-Ras substrate), 160 to 230 nM.

As to `COc1ccc(S(=O)(=O)C2(CCCC#Cc3cccc(N)c3)SC(=O)NC2=O)cc1` (stereo not drawn) [Example 220, 5-[5-(3-Aminophenyl)pent-4-ynyl]-5-(4-methoxybenzenesulfonyl)-thiazolidine-2,4-dione], the half-inhibitory concentration (IC50) was determined as 90 nM on FPTase (H-Ras substrate) and 3000 nM against FPTase (K-Ras substrate).

For the compound `Cc1ccc([N+](=O)[O-])cc1C#CCCCC1(S(=O)(=O)c2ccc(Oc3ccccc3)cc2)SC(=O)NC1=O` (stereo not drawn) [Example 124], the results for the IC50 against FPTase (H-Ras substrate) and at FPTase (K-Ras substrate) were 52 to 80 nM and 910 to 1300 nM, respectively.

Take `Cc1ccc(S(=O)(=O)C2(CCCC#Cc3ccc(Cl)cc3)SC(=O)NC2=O)cc1` (stereo not drawn) [Example 103, 5-[5-(4-Chlorophenyl)pent-4-ynyl]-5-(p-tolylsulfonyl)-thiazolidine-2,4-dione]: the IC50 against FPTase (H-Ras substrate) lay in the range of 30 to 50 nM; against FPTase (K-Ras substrate) it was 900 to 10000 nM.

Consider `COc1ccc(S(=O)(=O)C2(CCCC#Cc3cc(NC(=O)OC(C)(C)C)ccc3C)SC(=O)NC2=O)cc1` (single isomer, unassigned; less polar) [Example 222, Enantiomer of(3-{5-[5-(4-Methoxybenzenesulfonyl)-2,4-dioxothiazolidin-5-yl]pent-1-ynyl}-4-methylphenyl)carbamic Acid tert-Butyl Ester (less polar)], for which the IC50 amounted to 3.3 nM against FPTase (H-Ras substrate) and 33 nM against FPTase (K-Ras substrate).

For `COc1ccc(S(=O)(=O)C2(CCCC#Cc3ccc(NC(=O)OC(C)(C)C)cc3)SC(=O)NC2=O)cc1` (stereo not drawn) [Example 145, (4-{5-[5-(4-Methoxybenzensulfonyl)-2,4-dioxothiazolidin-5-yl]pent-1-ynyl}phenyl)carbamic Acid tert-Butyl Ester], the half-inhibitory concentration (IC50) fell in the range of 1200 to 1700 nM against FPTase (H-Ras substrate) and 5600 to 10000 nM at FPTase (K-Ras substrate).

Turning to `COc1ccc(S(=O)(=O)C2(CCCC#Cc3cc(NC(=O)OCc4ccccc4)ccc3C)SC(=O)NC2=O)cc1` (stereo not drawn) [Example 175, (3-{5-[5-(4-Methoxybenzenesulfonyl)-2,4-dioxothiazolidin-5-yl]pent-1-ynyl}-4-methylphenyl)carbamic Acid Benzyl Ester], the IC50 at FPTase (H-Ras substrate) lay in the range of 10 to 32 nM; at FPTase (K-Ras substrate) it was 53 to 520 nM.

Regarding `Cc1ccc([N+](=O)[O-])cc1C#CCCCC1(S(=O)(=O)c2ccc3ccccc3c2)SC(=O)NC1=O` (stereo not drawn) [Example 127, 5-[5-(2-Methyl-5-nitrophenyl)pent-4-ynyl]-5-(naphthalene-2-sulfonyl)-thiazolidine-2,4-dione], the figures for the IC50 against FPTase (H-Ras substrate) and against FPTase (K-Ras substrate) were 120 to 140 nM and 1300 to 1500 nM, respectively.

For `COc1ccc(S(=O)(=O)C2(CCCC#Cc3ccc([N+](=O)[O-])cc3C)SC(=O)NC2=O)cc1` (stereo not drawn) [Example 130, 5-(4-Methoxybenzenesulfonyl)-5-[5-(2-methyl-4-nitrophenyl)-pent-4-ynyl]-thiazolidine-2,4-dione], the IC50 against FPTase (H-Ras substrate) fell in the range of 23 to 56 nM; against FPTase (K-Ras substrate) it was 320 to 1000 nM.

As for `COc1ccc(S(=O)(=O)C2(CCCC#Cc3cc(NC(=O)OC(C)C)ccc3C)SC(=O)N(C(=O)OC(C)C)C2=O)cc1` (stereo not drawn) [Example 229, Isopropyl 5-(5-{5-[(isopropoxycarbonyl)-amino]-2-methylphenyl}pent-4-ynyl)-5-[(4-methoxyphenyl)sulfonyl]-2,4-dioxo-1,3-thiazolidine-3-carboxylate], the figures for the concentration for half-maximal inhibition (IC50) against FPTase (H-Ras substrate) and on FPTase (K-Ras substrate) were 6 to 20 nM and 100 to 700 nM, respectively.

As to `COc1ccc(S(=O)(=O)C2(CCCC#Cc3ccc([N+](=O)[O-])cc3)SC(=O)NC2=O)cc1` (stereo not drawn) [Example 121, 5-(4-Methoxybenzenesulfonyl)-5-[5-(4-nitrophenyl)pent-4-ynyl]-thiazolidine-2,4-dione], the figures for the IC50 at FPTase (H-Ras substrate) and on FPTase (K-Ras substrate) were 120 nM and 1600 nM, respectively.

Regarding `COc1ccc(S(=O)(=O)C2(CCCC#Cc3ccc(C#N)cc3)SC(=O)NC2=O)cc1` (stereo not drawn) [Example 158, 4-{5-[5-(4-Methoxybenzenesulfonyl)-2,4-dioxo-thiazolidin-5-yl]pent-1-ynyl}benzonitrile], the figures for the concentration for half-maximal inhibition (IC50) on FPTase (H-Ras substrate) and against FPTase (K-Ras substrate) were 150 nM and 3800 nM, respectively.

Turning to `Cc1ccc(Cl)cc1C#CCCCC1(S(=O)(=O)c2ccc(OC(F)(F)F)cc2)SC(=O)NC1=O` (stereo not drawn) [Example 139, 5-[5-(5-Chloro-2-methylphenyl)pent-4-ynyl]-5-(4-trifluoromethoxybenzene-sulfonyl)thiazolidine-2,4-dione], the concentration for half-maximal inhibition (IC50) lay in the range of 140 to 170 nM against FPTase (H-Ras substrate) and 600 to 5000 nM against FPTase (K-Ras substrate).

Consider `COc1ccc(S(=O)(=O)C2(CCCC#Cc3ccc(Cl)cc3)SC(=O)NC2=O)cc1` (stereo not drawn) [Example 97, 5-[5-(4-Chlorophenyl)pent-4-ynyl]-5-(4-methoxyphenylsulfonyl)-thiazolidine-2,4-dione], for which the IC50 fell in the range of 75 to 150 nM at FPTase (H-Ras substrate) and 3500 to 5500 nM on FPTase (K-Ras substrate).

With `Cc1ccc(S(=O)(=O)C2(CC#Cc3ccc(-c4ccccc4)cc3)SC(=O)NC2=O)cc1` (stereo not drawn) [Example 169, 5-(3-Biphenyl-4-yl-prop-2-ynyl)-5-(toluene-4-sulfonyl)-thiazolidine-2,4-dione], the IC50 on FPTase (H-Ras substrate) worked out at 100 nM; against FPTase (K-Ras substrate), 1800 nM.
